Measured values from patent US20250135012A1, “DENDRIMER CONJUGATES OF SMALL MOLECULE BIOLOGICS FOR INTRACELLULAR DELIVERY” (The Johns Hopkins University, priority 2021, published 2025).
Values joined by “and” are separate entries in the source; they are usually repeats but may differ in a detail not shown here. Identical values can stand only once. Non-standard residues stand in square brackets, D forms with d. Residues, ends and D or L forms follow the SMILES beside them. Cya = N[C@@H](CS(=O)(=O)O)C(=O)O

Experiments:
[1] = test system: choroidal neovascularization (CNV); test: Laser CNV model, CNV area; assay type: in vivo, Brown Norway rats
Experimental: Animals were anesthetized through intraperitoneal injections of a ketamine/xylazine cocktail (ketamine 50 mg/kg and xylazine 10 mg/kg). Pupils are dilated with topical 2.5% Phenylephrine Hydrochloride solution followed by 0.5% Tetracaine Hydrochloride solution. To induce CNV formation, four equally spaced lesions will be created in the Bruch's membrane with a built-in laser system on the Micron III SLO. Laser power was set to […] with duration of 70 ms. Gonio ophthalmic solution was applied post-operatively to prevent eyes from drying and forming cataracts.
On the day of CNV induction (Day 0), D-ALG1001 and ALG1001 was administered intraperitoneally at a dose of 150 μg on a peptide basis. […]
After fixation, the posterior segment of the eye was dissected out and the retina separated from the choroid. […] Samples for CNV quantification were imaged with an Axiovert phase contrast microscope. […]
A Micron III SLO scope and laser attachment was used to induce CNV formation in mice. […] Whether dendrimer conjugation impeded the peptide from attenuating CNV was assessed by first injecting ALG-1001 and D-ALG intravitreally after CNV induction. The eyes were then collected on day 7 and CNV area quantified.
The protection and targeting of D-ALG allowed for less invasive administration routes. […] Choroidal flatmount of eyes at day 7 and 14 were imaged and the CNV area was calculated using ImageJ.

HUVEC cells = test: HUVEC vessel formation assay on Matrigel; assay type: cell-based, human; settings: 1 mM
Experimental: 96 well plates were coated with 75 μL of […]® and left at room temperature for 15 minutes before placing into 37° C. incubators for an additional 30 minutes. D-ALG1001 was dissolved at twice the desired concentration and 50 μL of the drug solution was added to the wells. HUVEC cells were then added to each well at a density of 70,000 cells/cm^2. Live-cell images were taken at 12 h for analysis.
To find the effective dose in a physiologically relevant model, an in vitro model of blood vessel formation was utilized. HUVEC cells were treated with a gradient concentration of D-ALG and ALG-1001 for 24 h at three different magnitudes of doses. The cells were then seeded on […]® after which cells naturally migrate to form blood vessel-like tubule structures. The images were analyzed with Angiogenesis Analyzer plug-in on ImageJ to extract relevant metrics that measure the connectivity and integrity of tube networks (FIG. 16).

IL1β = IL1β expression in LPS stimulated RAW264.7 cells (qPCR); assay type: cell-based, murine; settings: 24 h pretreatment, LPS 3 h
Experimental: RAW264.7 cells were seeded at a density of 1×10^5 cells per well in 12-well plates 48 h before treatment. Cells were incubated with D-ALG1001 and ALG-1001 for 24 h, the treatment media was aspirated then LPS at a concentration of 10,000 Endotoxin Units/mL was added to stimulate inflammatory response. Samples were collected 3 h after LPS stimulation for qPCR analysis.
100 μL of chloroform was added to the Trizol suspension and the aqueous phase was separated with a centrifuge at 10K RPM at 4° C. for 15 minutes. 400 μL of 2-propanol was added to the aqueous solution and spun again to pellet the RNA. The RNA was washed with 70% ethanol solution, pelleted again, and re-suspended in DEPC (ultrapure treated to inactivated enzymes) water.
To convert RNA to complementary DNA, 2 μg of RNA was converted using a High-Capacity cDNA Reverse Transcription Kit (Applied Biosystems, Foster City, CA). Samples were analyzed using STEPONE PLUS® real-time PCR system (Applied Biosystems) with SYBR Green reagent (ThermoFisher Scientific). Relative expression was quantified with ΔΔCt calculations normalized to controls. Primers for GAPDH was obtained from Bio-Rad Laboratories (Hercules, CA). Primers were purchased from Integrated DNA Technologies (Coralville, IA). Primers for TNFα were: […]

proteinase K = proteinase K (Parengyodontium album, UniProt P06873); test: in vitro; settings: proteinase K (isolated protease)
Experimental: Proteinase K stock solution was purchased from ThermoFisher and used as is. […] The mixture was incubated at 37° C. and at set time points, 100 μL of the mixture was removed and analyzed through HPLC.

FAK = test: Choroid total FAK and phospho-FAK (Y397) ELISA; assay type: in vivo, Brown Norway rats
Experimental: In brief, 500 μL of T-Per supplemented with PHOSSTOP® and proteinase inhibitor cocktail was added to tubes containing dissected choroid. A scoop of 1.6 mm steel homogenization beads was added to each sample and then placed in […]® LT (Qiagen) at an oscillation frequency of 50/s for 15 minutes. For qPCR, 200 μL of TRIZOL® was added to tubes containing choroid and a scoop of 1.6 mm steel homogenization beads was added. The samples were placed in […]® LT at an oscillation frequency of 50/s for 15 minutes.
For protein extracted from tissues, total FAK and FAK (Phospho) [pY397] ELISA kits (Invitrogen) were used to quantify the level of protein expression and the measured protein expression was normalized to the total protein amount of each sample as determined from BCA assays.
To evaluate activation of FAK and ERK pathways, eyes were enucleated at set time points and the choroidal tissue dissected out. Tissues were submerged in a mixture of T-per, proteinase inhibitor, and PhosStop with stainless steel homogenization beads and homogenized to produce protein extracts. Total FAK, total ERK, p-FAK (Y397), and p-44/42 ERK ELISA kits were used to quantify the amount of total and phosphorylated proteins in FAK and ERK pathways. […] However, the level of total FAK protein in ALG-1001 treated animals was elevated at day 14.

proteinase K, sequence (P06873 106-384): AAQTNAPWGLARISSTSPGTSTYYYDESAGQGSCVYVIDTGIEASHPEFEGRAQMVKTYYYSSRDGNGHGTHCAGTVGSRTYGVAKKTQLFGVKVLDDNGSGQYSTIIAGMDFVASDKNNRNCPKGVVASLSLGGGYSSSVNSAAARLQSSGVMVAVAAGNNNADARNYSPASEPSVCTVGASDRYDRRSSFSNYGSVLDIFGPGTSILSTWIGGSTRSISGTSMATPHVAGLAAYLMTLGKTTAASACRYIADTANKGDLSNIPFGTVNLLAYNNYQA

For `C[C@@H](O)[C@H](NC(=O)[C@H](CS(=O)(=O)O)NC(=O)CNC(=O)[C@H](CCCNC(=N)N)NC(=O)CN)C(=O)N1CCC[C@H]1C(=O)O` [ALG-1001] (H-GRG[Cya]TP-OH; N-terminus and C-terminus assumed), the “reduction of CNV formation” value ([1]; day 7, intraperitoneal 150 μg peptide basis every 4 days) was ~60% and 40%, the “formation of CNV” value ([1]; intravitreal, day 7) was “significantly inhibited” and the tube formation (HUVEC cells) was “increased disruption in tube formation”. For the same molecule, the “impact on IL1β production” value (IL1β) was “no impact on IL1β production”, the metabolised at 0.5 h, 2 mg/mL (proteinase K) was ~50% and the metabolised at […], 2 mg/mL (proteinase K) was ~90%. The p-FAK protein (FAK; 7 and 14 days) was “reduction of p-FAK” and the “total FAK protein” value (FAK; day 14) was “elevated”.
